Patent publication US10865216B2, “Tricyclic Gyrase inhibitors” (MERCK SHARP & DOHME CORP., priority 2012, dated 2020)
Converted amounts (≈) assume the structure as drawn. Read-outs that look alike come from different tables or passages of the source. One block for each compound: values may come before it.

Key:
E. coli ATCC 25922 = test: MIC, E. coli ATCC 25922; format: cell-based; conditions: for MIC: Escherichia coli
S. aureus ATCC 13709 = test: MIC, S. aureus ATCC 13709; format: cell-based; conditions: for MIC: Staphylococcus aureus
[1] = E. coli, Alamar Blue read after overnight incubation at 35° C.
[2] = S. aureus, Alamar Blue read after overnight incubation at 35° C.
[3] = ATCC25922, E. coli, Alamar Blue read after overnight incubation at 35° C., read-out: MIC Ec
[4] = ATCC13709, S. aureus, Alamar Blue read after overnight incubation at 35° C., read-out: MIC Sa

SMILES: CNc1cc(F)cc2c1[nH]c1nc(Oc3cnc(C)nc3)nc(-c3cn[nH]c3)c12 [Compound 4.418]
MIC Ec (E. coli ATCC 25922; [1]): 1 µg/mL (≈ 2.56 µM) | MIC Sa (S. aureus ATCC 13709; [2]): ≤0.5 µg/mL

SMILES: CNc1cccc2c1[nH]c1nc(Sc3cnc4cccnc4c3)nc(N3CC(N)C4(CC4)C3)c12 (centres unmarked) [Compound 1.27]
MIC (E. coli ATCC 25922; [3]): 1 µg/mL (≈ 2.13 µM) | MIC (S. aureus ATCC 13709; [4]): ≤ 0.5 µg/mL

SMILES: CNc1cc(F)cc2c1[nH]c1nc(Oc3cnc(C)nc3)nc(N3CCC(F)(CN)C3)c12 (centres unmarked)
MIC (E. coli ATCC 25922; ATCC25922, Table 16, new R4 substituents, EC8 not defined, read-out: EC8 MIC): ≤ 0.5 µg/mL | MIC (S. aureus ATCC 13709; ATCC13709, Table 16, new R4 substituents, read-out: SA MIC): ≤ 0.5 µg/mL

SMILES: CNc1cc(F)cc2c1[nH]c1nc(Oc3ccc(C#N)nc3)nc(N3CC(N)C4(CC4)C3)c12 (centres unmarked) [Compound 4.329]
MIC Ec (E. coli ATCC 25922; [1]): ≤0.5 µg/mL | MIC Sa (S. aureus ATCC 13709; [2]): ≤0.5 µg/mL

SMILES: CNc1cc(F)cc2c1[nH]c1nc(Oc3cnc(C)nc3)nc(N3CC(N)C4(CC4)C3)c12 (centres unmarked) [Compound 4.068]
MIC Ec (E. coli ATCC 25922; [1]): ≤0.5 µg/mL | MIC Sa (S. aureus ATCC 13709; [2]): ≤0.5 µg/mL

SMILES: CNc1cc(F)cc2c1[nH]c1nc(Oc3cnc(C)nc3)nc(-c3cncnc3)c12 [Compound 4.449]
MIC (E. coli ATCC 25922; [3]): > 16 µg/mL | MIC (S. aureus ATCC 13709; [4]): ≤ 0.5 µg/mL

SMILES: CNc1cccc2c1[nH]c1nc(Sc3cnc4ccc[n+]([O-])c4c3)nc(N3CCC4(CC4N)C3)c12 (centres unmarked) [Compound 1.39]
MIC Ec (E. coli ATCC 25922; [1]): 1 µg/mL (≈ 2.06 µM) | MIC Sa (S. aureus ATCC 13709; [2]): ≤0.5 µg/mL

SMILES: CNc1ncc(Oc2nc(N3CC4C(N)C4C3)c3c(n2)[nH]c2c(NC)cc(F)cc23)cn1 (centres unmarked) [Compound 4.218]
MIC Ec (E. coli ATCC 25922; [1]): ≤0.5 µg/mL | MIC Sa (S. aureus ATCC 13709; [2]): ≤0.5 µg/mL

SMILES: CNc1cccc2c1[nH]c1nc(Sc3cnc4cccnc4c3)nc(N3CC4CCCNC4C3)c12 (centres unmarked) [Compound 1.28]
MIC (E. coli ATCC 25922; [3]): 16 µg/mL (≈ 33.2 µM) | MIC (S. aureus ATCC 13709; [4]): 4 µg/mL (≈ 8.29 µM)

SMILES: CNc1cccc2c1[nH]c1nc(Oc3cncc(C#N)c3)cc(N3CC4C(N)C4C3)c12 (centres unmarked) [Compound 3.27]
MIC (E. coli ATCC 25922; [3]): 4 µg/mL (≈ 9.72 µM) | MIC (S. aureus ATCC 13709; [4]): 1 µg/mL (≈ 2.43 µM)

SMILES: CNc1cc(F)cc2c1[nH]c1nc(Nc3cnc4c(c3)nnn4C(C)C)nc(N3C[C@H]4CC3C[C@H]4N)c12
EC MIC (E. coli ATCC 25922; Table 13, L = NH): 1 µg/mL | SA MIC (S. aureus ATCC 13709; Table 13, L = NH): ≤ 0.5 µg/mL

SMILES: CNc1cc(F)cc2c1[nH]c1nc(Oc3cnc(SC)nc3)nc(N3CC4C(CN)C4C3)c12 (centres unmarked) [Compound 4.197]
MIC Ec (E. coli ATCC 25922; [1]): ≤0.5 µg/mL | MIC Sa (S. aureus ATCC 13709; [2]): ≤0.5 µg/mL

SMILES: CNc1cc(F)cc2c1[nH]c1nc(Oc3cnc4cccnc4c3)nc(N3CC4(CC4N)C3)c12 (centres unmarked) [Compound 4.042]
MIC Ec (E. coli ATCC 25922; [1]): ≤0.5 µg/mL | MIC Sa (S. aureus ATCC 13709; [2]): ≤0.5 µg/mL

SMILES: CNc1cc(F)cc2c1[nH]c1nc(Oc3ccc4c(c3)C(=O)NC4)nc(N3CC(N)C4(CC4)C3)c12 (centres unmarked) [Compound 4.265]
MIC Ec (E. coli ATCC 25922; [1]): 4 µg/mL (≈ 8.45 µM) | MIC Sa (S. aureus ATCC 13709; [2]): ≤0.5 µg/mL

SMILES: CNc1cc(F)cc2c1[nH]c1nc(Oc3cnc(N)nc3)nc(N3CC(N)C4(CC4)C3)c12 (centres unmarked) [Compound 4.177]
MIC Ec (E. coli ATCC 25922; [1]): ≤0.5 µg/mL | MIC Sa (S. aureus ATCC 13709; [2]): ≤0.5 µg/mL

SMILES: CNc1cc(F)cc2c1[nH]c1nc(Oc3ccc4ccnn4c3)nc(N3CC4(CCC4N)C3)c12 (centres unmarked) [Compound 10.57]
MIC Ec (E. coli ATCC 25922; Table 18, Ec): ≤ 0.5 µg/mL | MIC Sa (S. aureus ATCC 13709; Table 18, Sa): ≤ 0.5 µg/mL

SMILES: CNc1cccc2c1[nH]c1nc(Sc3cnc4cccnc4c3)nc(N3CCCCC(N)C3)c12 (centres unmarked) [Compound 1.45]
MIC (E. coli ATCC 25922; [3]): 4 µg/mL (≈ 8.5 µM) | MIC (S. aureus ATCC 13709; [4]): 1 µg/mL (≈ 2.12 µM)

SMILES: CNc1cc(F)cc2c1[nH]c1nc(Oc3cnc(NC4CC4)nc3)nc(N3CC[C@@H](N)C3)c12 [Compound 4.222]
MIC Ec (E. coli ATCC 25922; [1]): ≤0.5 µg/mL | MIC Sa (S. aureus ATCC 13709; [2]): ≤0.5 µg/mL

The next lines start with the values.

MIC Ec (E. coli ATCC 25922; [1]): ≤0.5 µg/mL | MIC Sa (S. aureus ATCC 13709; [2]): ≤0.5 µg/mL
SMILES: CNc1cc(F)cc2c1[nH]c1nc(Oc3cncc(C#N)c3)nc(N3CCC4(CC4N)C3)c12 (centres unmarked) [Compound 4.052]

MIC (E. coli ATCC 25922; [3]): 2 µg/mL (≈ 4.19 µM) | MIC (S. aureus ATCC 13709; [4]): 1 µg/mL (≈ 2.09 µM)
SMILES: CNc1cc(F)cc2c1[nH]c1nc(Oc3cnc(C(C)(C)N)nc3)nc(N3C[C@H]4CC3C[C@H]4N)c12 [Compound 4.442]

MIC Ec (E. coli ATCC 25922; [1]): ≤0.5 µg/mL | MIC Sa (S. aureus ATCC 13709; [2]): ≤0.5 µg/mL
SMILES: CNc1cc(F)cc2c1[nH]c1nc(Oc3cnc(SC)nc3)nc(N3CC4CCNC4C3)c12 (centres unmarked) [Compound 4.198]

MIC Ec (E. coli ATCC 25922; [1]): ≤0.5 µg/mL | MIC Sa (S. aureus ATCC 13709; [2]): ≤0.5 µg/mL
SMILES: CNc1cc(F)cc2c1[nH]c1nc(Oc3cnc(C4CC4)nc3)nc(N3CC4CC(N)C4C3)c12 (centres unmarked) [Compound 4.240]

MIC (E. coli ATCC 25922; [3]): ≤ 0.5 µg/mL | MIC (S. aureus ATCC 13709; [4]): ≤ 0.5 µg/mL
SMILES: CNc1cc(F)cc2c1[nH]c1nc(Oc3cnc(C(C)(C)O)nc3)nc(N3CC4(CC[C@H]4N)C3)c12 [Compound 4.431]

MIC Ec (E. coli ATCC 25922; Table 18, Ec): ≤ 0.5 µg/mL | MIC Sa (S. aureus ATCC 13709; Table 18, Sa): ≤ 0.5 µg/mL
SMILES: CNc1cc(F)cc2c1[nH]c1nc(Oc3cnc4cc[s+]([O-])c4c3)nc(N3C[C@H]4C[C@@H]3C[C@H]4N)c12 (some centres unmarked) [Compound 10.109]

MIC (E. coli ATCC 25922; [3]): > 16 µg/mL | MIC (S. aureus ATCC 13709; [4]): 16 µg/mL (≈ 28.3 µM)
SMILES: CNc1cc(F)cc2c1[nH]c1nc(Oc3cnc(C)nc3)nc(N3CC(N)C(C(=O)NCCN4CCOCC4)C3)c12 (centres unmarked) [Compound 4.440]

EC8 MIC (E. coli ATCC 25922; Table 12, Z is C and connected to R4, EC8 not defined): ≤ 0.5 µg/mL | SA MIC (S. aureus ATCC 13709; Table 12, Z is C and connected to R4): ≤ 0.5 µg/mL
SMILES: CNc1cc(F)c2c3c1[nH]c1nc(Oc4cnc(C)nc4)nc(c13)-c1ccccc1NC2

MIC Ec (E. coli ATCC 25922; Table 18, Ec): 4 µg/mL (≈ 8.36 µM) | MIC Sa (S. aureus ATCC 13709; Table 18, Sa): 1 µg/mL (≈ 2.09 µM)
SMILES: CNc1cc(F)cc2c1[nH]c1nc(Oc3cnc(C(C)O)nc3)nc(N3C[C@H]4C[C@@H]3[C@H](C)[C@H]4N)c12 (some centres unmarked) [Compound 10.78]

MIC (E. coli ATCC 25922; [3]): > 32 µg/mL | MIC (S. aureus ATCC 13709; [4]): 8 µg/mL (≈ 17.1 µM)
SMILES: CNc1cccc2c1[nH]c1nc(Oc3cncnc3)cc(N3CCN(Cc4ccccn4)CC3)c12 [Compound 3.54]
